According to patent US11160770B2, “Compounds, compositions and methods for treating oxidative DNA damage disorders” (Indiana University Research and Technology Corporation, priority 2011, dated 2021):

Molecular target: redox function of APE1 (Homo sapiens, UniProt P27695)
Assay: Redox EMSA Assay
Format: biochemical
Conditions: 0.02 mM DTT
Method: EXAMPLE. Redox EMSA Assay. Conventional electrophoresis measuring Ape1 […] with 0.02 mM DTT is used to evaluate test compounds. Additional details are described in Fishel et al. Mol Cancer Ther. 2011 September; 10(9):1698-708 & Luo et al., Antioxid Redox Signal. 2008 November; 10(11):1853-67. […]

redox function of APE1, sequence (P27695 whole entry): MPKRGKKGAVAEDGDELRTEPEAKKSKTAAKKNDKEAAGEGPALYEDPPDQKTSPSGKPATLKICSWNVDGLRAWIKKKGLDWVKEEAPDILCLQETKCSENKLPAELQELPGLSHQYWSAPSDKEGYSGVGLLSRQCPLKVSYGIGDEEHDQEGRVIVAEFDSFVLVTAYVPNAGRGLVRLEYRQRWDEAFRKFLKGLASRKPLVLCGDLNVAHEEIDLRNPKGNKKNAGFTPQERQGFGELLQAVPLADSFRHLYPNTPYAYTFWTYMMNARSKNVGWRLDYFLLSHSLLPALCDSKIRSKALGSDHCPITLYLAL

SMILES | IC50 [µM]
CCC/C(=C\C1=C(OC)C(=O)c2ccccc2C1=O)C(=O)NC [Example 1] | 6.2
CCC/C(=C\C1=C(OC)C(=O)c2ccccc2C1=O)C(=O)N(C)C [Example 2] | 2.3
CCC/C(=C\C1=C(OC)C(=O)c2ccccc2C1=O)C(=O)NCC [Example 3] | 3.3
CCC/C(=C\C1=C(OC)C(=O)c2ccccc2C1=O)C(=O)N(CC)CC [Example 5] | < 1
CCCC/C(=C\C1=C(C)C(=O)c2ccccc2C1=O)C(=O)NC [Example 6] | 17
CCCC/C(=C\C1=C(C)C(=O)c2ccccc2C1=O)C(=O)N(C)C [Example 7] | 23
CCCC/C(=C\C1=C(C)C(=O)c2ccccc2C1=O)C(=O)NCC [Example 8] | 20
CCCC/C(=C\C1=C(C)C(=O)c2ccccc2C1=O)C(=O)N(CC)CC [Example 9] | 120
CCCC/C(=C\C1=C(OC)C(=O)c2ccccc2C1=O)C(=O)NOC [Example 10] | < 1
CCCC/C(=C\C1=C(C)C(=O)c2ccccc2C1=O)C(=O)NC1CC1 [Example 11] | 14
CCCC/C(=C\C1=C(C)C(=O)c2ccccc2C1=O)C(=O)NC1CCCCC1 [Example 14] | 98
CCCC/C(=C\C1=C(C)C(=O)c2ccccc2C1=O)C(=O)N1CCNC(=O)C1 [Example 15] | 23
CCCC/C(=C\C1=C(C)C(=O)c2ccccc2C1=O)C(=O)N(C)OC [Example 16] | 26
CCCC/C(=C/C1=C(C)C(=O)c2ccccc2C1=O)C(=O)N1CCOCC1 [Example 17] | 25
CCCC/C(=C\C1=C(C)C(=O)c2ccccc2C1=O)C(=O)N1CCOCC1 [Example 18] | 34
CCCC/C(=C\C1=C(C)C(=O)c2ccccc2C1=O)C(=O)NCCOC [Example 20] | 94
CCCC/C(=C/C1=C(C)C(=O)c2ccccc2C1=O)C(=O)NCCOC [Example 21] | 40
CCC/C(=C\C1=C(Cl)C(=O)c2ccccc2C1=O)C(=O)NOC [Example 22] | < 2.5
CCC/C(=C\C1=C(Cl)C(=O)c2ccccc2C1=O)C(=O)N(CC)CC [Example 23] | 2.5
CCC/C(=C\C1=C(O)C(=O)c2ccccc2C1=O)C(=O)O [Example 24] | > 10
CCCC(=CC1=C(OC)C(=O)c2ccccc2C1=O)C(=O)N(CC)CC [Example 25] | 13
CCCC(=CC1=C(OC)C(=O)c2ccccc2C1=O)C(=O)N(C)C [Example 26] | 2.6
CCCCCCCCC/C(=C\C1=C(C)C(=O)C(OC)=C(OC)C1=O)C(=O)NOC [Example 29] | 17
CCCCCCCCC/C(=C\C1=C(C)C(=O)C(OC)=C(OC)C1=O)C(=O)N(C)CC(O)C(O)C(O)C(O)CO (stereo not drawn) [Example 30] | 15
CCCC/C(=C\C1=C(C)C(=O)C(OC)=C(OC)C1=O)C(=O)N(C)OC [Example 31] | 24
CCCC/C(=C\C1=C(C)C(=O)c2ccccc2C1=O)C(=O)O [Example 32] | 47 to 52
CCCC/C(=C\C1=C(OC)C(=O)c2ccccc2C1=O)C(=O)O [Example 33] | 0.5
